One experiment deals with T1, Human HDAC1 (Homo sapiens, UniProt Q13547).
T1 construct: full-length with a C-terminal His-tag and a C-terminal FLAG-tag; His-tag (C); FLAG-tag (C); made in house
The experiment is described as follows: Biochemical HDAC assay, HDAC1. The settings on record: incubation time 120 min. The method, then:
Human HDAC1 (GenBank Accession No. NM_004964), full-length with a C-terminal His-tag and a C-terminal FLAG-tag, MW=56 kDa, was expressed in a baculovirus expression system.
(§1) • I. Compound handling: Testing compounds were dissolved in 100% DMSO to a specific concentration. The serial dilution was conducted by epMotion 5070 in DMSO. • II. HDAC reaction buffer: 50 mM Tris-HCl, pH8.0, 137 mM NaCl, 2.7 mM KCl, and 1 mM MgCl2, Added fresh: 1 mg/ml BSA, 1% DMSO. • III. Substrate: Fluorogenic HDAC General Substrate for HDAC1, 2, 3, 6, 10, 11 ans Sirt1, 2 and 3: Arg-His-Lys-Lys(Ac); HDAC8 only substrate: Arg-His-Lys(Ac)-Lys(Ac); Class2A Substrate (HDAC4, 5, 7 and 9): Acetyl-Lys(trifluoroacetyl)-AMC; Sirt5 substrate: Ac-Lys(succinyl)-AMC. • IV. General Reaction Procedure: (Standard IC50 determination) • a. Delivered 2× enzyme in wells of reaction plate except No Enzyme (No En) control wells. Add buffer in No En wells. • b. Delivered compounds in 100% DMSO into the enzyme mixture by Acoustic technology (Echo550; nanoliter range). Spin down and pre-incubation. • c. Delivered 2× Substrate Mixture (Fluorogenic HDAC Substrate and co-factor (500 μM of Nicotinamide adenine dinucleotide (NAD^+) in all Sirt assay) in all reaction wells to initiate the reaction. Spin and shake. • d. Incubated for 1-2 hr. at 30° C. with seal. • e. Added Developer with Trichostatin A (or TMP269 or NAD^+) to stop the reaction and to generate fluorescent color. • f. Fluorescence was read (excitatory, 360; emission, 460) using the EnVision Multilabel Plate Reader (Perkin Elmer) • g. Endpoint reading was taken for analysis after the development reaches plateau. • V. Data Analysis: The percentages of enzyme activity (relative to DMSO controls) and IC50 values were calculated using the GraphPad Prism 4 program based on a sigmoidal dose-response equation.
(§2) Compounds with indicated doses was tested in the biochemical assays of HDAC1, HDAC2, HDAC3, HDAC4, HDAC5, HDAC6, HDAC7, HDAC8, HDAC9, HDAC10, or HDAC11 enzyme. The incubation time in HDAC1/2 assays are 120 min, and that for other HDACs are 10 min. The curve fit and IC50 values were calculated using the GraphPad Prism 4 program based on a sigmoidal dose-response equation.

A further experiment addresses T2, Human HDAC2 (Homo sapiens, UniProt Q92769).
T2 construct: full-length with a C-terminal His-tag; His-tag (C); made in house
Kind of experiment: Biochemical HDAC assay, HDAC2. Particulars: incubation time 120 min. As to the method: Human HDAC2 (GenBank Accession No. NM_001527), full-length with a C-terminal His-tag, MW=56 kDa, was expressed in a baculovirus expression system.
as §1, §2

Experiment [1] concerns the target T3, Complex of human HDAC3 and human NCOR2 (Homo sapiens, UniProt O15379).
T3 construct: full-length with a C-terminal His tag; His tag (C); made in house
The experiment is described as follows: Biochemical HDAC assay, HDAC3. The settings on record: incubation time 10 min. The method, then:
Complex of human HDAC3 (GenBank Accession No. NM_003883), full-length with a C-terminal His tag, MW=49.7 kDa, and human NCOR2 (amino acid 395-489) (GenBank Accession No. NM_006312), N-terminal GST tag, MW=37.6 kDa, was co-expressed in a baculovirus expression system.
as §1, §2

A further experiment deals with T4, Recombinant human HDAC6 (Homo sapiens, UniProt Q9UBN7).
T4 construct: full-length, MW=180 kDa; GST tag (N); made in house; host or cells: Sf9 insect cells (baculovirus)
T4 sequence (Q9UBN7 1-1215): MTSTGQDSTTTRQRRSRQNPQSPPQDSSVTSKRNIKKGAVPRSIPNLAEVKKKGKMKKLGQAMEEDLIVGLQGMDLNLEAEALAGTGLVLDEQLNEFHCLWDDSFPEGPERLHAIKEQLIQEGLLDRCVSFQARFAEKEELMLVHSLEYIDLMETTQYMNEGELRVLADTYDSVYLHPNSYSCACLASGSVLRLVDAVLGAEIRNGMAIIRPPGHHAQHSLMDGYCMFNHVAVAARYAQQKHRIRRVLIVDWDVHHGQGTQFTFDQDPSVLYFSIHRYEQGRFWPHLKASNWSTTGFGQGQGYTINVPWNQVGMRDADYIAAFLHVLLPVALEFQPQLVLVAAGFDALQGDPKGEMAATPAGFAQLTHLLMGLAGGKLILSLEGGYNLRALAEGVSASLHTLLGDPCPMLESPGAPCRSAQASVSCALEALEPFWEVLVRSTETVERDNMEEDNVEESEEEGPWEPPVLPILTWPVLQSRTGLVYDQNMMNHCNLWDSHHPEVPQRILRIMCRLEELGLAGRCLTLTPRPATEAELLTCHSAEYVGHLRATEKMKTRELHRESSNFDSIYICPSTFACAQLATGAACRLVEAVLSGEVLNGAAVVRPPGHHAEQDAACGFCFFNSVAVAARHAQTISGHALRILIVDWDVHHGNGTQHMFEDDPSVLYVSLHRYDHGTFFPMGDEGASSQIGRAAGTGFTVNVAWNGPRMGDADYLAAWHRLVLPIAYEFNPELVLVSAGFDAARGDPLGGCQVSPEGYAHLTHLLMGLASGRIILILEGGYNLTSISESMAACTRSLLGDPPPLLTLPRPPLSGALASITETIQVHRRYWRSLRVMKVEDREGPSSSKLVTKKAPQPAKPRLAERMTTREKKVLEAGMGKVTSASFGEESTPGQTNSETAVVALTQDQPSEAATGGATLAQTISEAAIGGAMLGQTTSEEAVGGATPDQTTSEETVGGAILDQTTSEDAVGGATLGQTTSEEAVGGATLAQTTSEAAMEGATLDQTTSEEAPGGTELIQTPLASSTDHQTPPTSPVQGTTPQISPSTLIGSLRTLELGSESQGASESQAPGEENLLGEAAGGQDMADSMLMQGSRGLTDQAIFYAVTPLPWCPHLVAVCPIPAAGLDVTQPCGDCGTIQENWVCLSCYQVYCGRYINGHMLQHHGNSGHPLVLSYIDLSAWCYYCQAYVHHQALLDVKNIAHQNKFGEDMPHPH
The experiment is described as follows: Biochemical HDAC assay, HDAC6. Particulars: incubation time 10 min. The method, then: Recombinant human HDAC6 (GenBank Accession No. BC069243), full-length, MW=180 kDa, was expressed by baculovirus in Sf9 insect cells using an N-terminal GST tag.
as §1, §2

The target of another experiment is T5, Human HDAC8 (Homo sapiens, UniProt Q9BY41).
T5 construct: full-length with a C-terminal His tag; His tag (C); made in house
T5 sequence (Q9BY41 1-377): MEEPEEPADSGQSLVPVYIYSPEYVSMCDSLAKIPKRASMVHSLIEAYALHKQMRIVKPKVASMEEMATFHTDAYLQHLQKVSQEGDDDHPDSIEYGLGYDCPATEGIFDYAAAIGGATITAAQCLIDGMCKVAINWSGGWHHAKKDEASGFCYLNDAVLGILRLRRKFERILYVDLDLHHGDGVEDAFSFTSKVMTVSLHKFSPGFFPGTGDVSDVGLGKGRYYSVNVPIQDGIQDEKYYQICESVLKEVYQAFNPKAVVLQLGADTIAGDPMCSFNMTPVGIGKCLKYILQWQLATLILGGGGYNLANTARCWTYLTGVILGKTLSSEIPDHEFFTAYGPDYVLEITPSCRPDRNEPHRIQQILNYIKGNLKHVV
The experiment is described as follows: Biochemical HDAC assay, HDAC8. The settings on record: incubation time 10 min. As to the method: Human HDAC8 (GenBank Accession No. NM_018486), full-length with a C-terminal His tag, MW=46.4 kDa, was expressed in a baculovirus expression system.
as §1, §2

The structures appear in SMILES notation. A value given as a limit tells only on which side of the number the result lay.

T1 sequence (Q13547 whole entry): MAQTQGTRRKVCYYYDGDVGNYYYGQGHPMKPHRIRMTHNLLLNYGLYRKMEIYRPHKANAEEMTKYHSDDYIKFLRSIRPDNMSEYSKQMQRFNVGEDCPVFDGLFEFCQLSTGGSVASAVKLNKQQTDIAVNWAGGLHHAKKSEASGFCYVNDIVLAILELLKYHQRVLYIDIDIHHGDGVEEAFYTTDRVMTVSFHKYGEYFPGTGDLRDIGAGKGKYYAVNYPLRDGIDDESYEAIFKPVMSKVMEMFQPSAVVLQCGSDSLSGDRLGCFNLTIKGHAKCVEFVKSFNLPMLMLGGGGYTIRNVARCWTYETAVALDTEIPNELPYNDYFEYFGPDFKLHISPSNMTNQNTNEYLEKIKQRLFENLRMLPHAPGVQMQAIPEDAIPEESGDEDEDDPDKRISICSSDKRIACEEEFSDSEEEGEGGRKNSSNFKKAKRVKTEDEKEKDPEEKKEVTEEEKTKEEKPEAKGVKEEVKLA
T2 sequence (Q92769 whole entry): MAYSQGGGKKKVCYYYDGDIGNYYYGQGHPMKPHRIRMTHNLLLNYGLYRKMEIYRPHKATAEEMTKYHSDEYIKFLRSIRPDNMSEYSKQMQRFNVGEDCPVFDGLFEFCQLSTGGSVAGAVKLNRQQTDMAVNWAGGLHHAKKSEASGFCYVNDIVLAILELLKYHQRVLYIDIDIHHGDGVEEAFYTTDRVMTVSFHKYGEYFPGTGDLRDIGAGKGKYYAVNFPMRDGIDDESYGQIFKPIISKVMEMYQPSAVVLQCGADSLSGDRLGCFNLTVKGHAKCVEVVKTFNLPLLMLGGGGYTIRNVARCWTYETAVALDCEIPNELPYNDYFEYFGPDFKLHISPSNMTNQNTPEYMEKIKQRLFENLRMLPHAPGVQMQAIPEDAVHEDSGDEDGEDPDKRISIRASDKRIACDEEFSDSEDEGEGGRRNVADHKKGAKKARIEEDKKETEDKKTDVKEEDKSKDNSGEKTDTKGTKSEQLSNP
T3 sequence (O15379 whole entry): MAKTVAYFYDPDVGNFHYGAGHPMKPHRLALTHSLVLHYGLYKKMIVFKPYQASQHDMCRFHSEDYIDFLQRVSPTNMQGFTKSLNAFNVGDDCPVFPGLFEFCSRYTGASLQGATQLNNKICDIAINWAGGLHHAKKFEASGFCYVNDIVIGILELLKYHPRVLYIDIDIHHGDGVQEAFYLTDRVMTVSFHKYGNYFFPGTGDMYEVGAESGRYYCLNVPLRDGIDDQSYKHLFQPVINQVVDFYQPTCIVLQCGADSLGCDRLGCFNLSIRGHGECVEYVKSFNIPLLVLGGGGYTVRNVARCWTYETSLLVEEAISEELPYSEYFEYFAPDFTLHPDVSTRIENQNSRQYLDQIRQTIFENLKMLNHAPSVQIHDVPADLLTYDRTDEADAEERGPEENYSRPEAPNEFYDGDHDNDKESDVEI
T3 sequence (Q9Y618 395-489 partner limits assumed): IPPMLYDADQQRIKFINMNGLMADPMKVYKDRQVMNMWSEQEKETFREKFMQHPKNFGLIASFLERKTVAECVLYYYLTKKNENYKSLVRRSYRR

For orientation: IC50 means the concentration that inhibits the measured activity by half. Consider `Nc1ccc(-c2cccs2)cc1NC(=O)c1ccc2c(c1)CCNC2=O` [Example 1, N-(2-amino-5-(thiophen-2-yl)phenyl)-1-oxo-1,2,3,4-tetrahydroisoquinoline-6-carboxamide], for which the IC50 on Human HDAC1 is 1.8 nM; on Human HDAC2 it was 24 nM; in experiment [1], greater than 10000 nM; on Recombinant human HDAC6, greater than 10000 nM; against Human HDAC8, greater than 10000 nM.

On to `Nc1ccc(-c2cccs2)cc1NC(=O)c1ccc2c(c1)CCN(CC1CCOCC1)C2=O` [Example 2, N-(2-amino-5-(thiophen-2-yl)phenyl)-1-oxo-2-((tetrahydro-2H-pyran-4-yl)methyl)-1,2,3,4-tetrahydroisoquinoline-6-carboxamide], for which the IC50 is 1.9 nM on Human HDAC1; 23 nM against Human HDAC2; greater than 10000 nM in experiment [1]; greater than 10000 nM at Recombinant human HDAC6; greater than 10000 nM at Human HDAC8.

Regarding `Nc1ccc(-c2cccs2)cc1NC(=O)c1ccc2c(c1)CCN(C(=O)C1CCOCC1)C2` [Example 3, N-(2-amino-5-(thiophen-2-yl)phenyl)-2-(tetrahydro-2H-pyran-4-carbonyl)-1,2,3,4-tetrahydroisoquinoline-6-carboxamide], the IC50 was 2.6 nM against Human HDAC1; 25 nM on Human HDAC2; greater than 10000 nM in experiment [1]; greater than 10000 nM on Recombinant human HDAC6; greater than 10000 nM on Human HDAC8.

As to `Nc1ccc(-c2cccs2)cc1NC(=O)c1ccc2c(c1)CCN(C(=O)c1cccnc1)C2` [Example 4, N-(2-amino-5-(thiophen-2-yl)phenyl)-2-nicotinoyl-1,2,3,4-tetrahydroisoquinoline-6-carboxamide], the half-inhibitory concentration (IC50) is 3 nM against Human HDAC1; 39 nM at Human HDAC2; greater than 10000 nM in experiment [1]; greater than 10000 nM at Recombinant human HDAC6; greater than 10000 nM at Human HDAC8.

The values above are taken from patent publication US20190270733A1, “Quinoline and Isoquinoline Based HDAC Inhibitors and Methods of Use Thereof” (Reaction Biology Corp., priority 2018, published 2019).
